For 24 compounds, T/C results are on record in PubChem BioAssay AID330 (DTP/NCI, 2004).

The subject of the assay is P388 leukemia ip, CD2F1 mice, survival T/C. Nature of the assay: NCI In Vivo Anticancer Drug Screen. Data for tumor model P388 Leukemia (intraperitoneal) in CD2F1 (CDF1) mice. Conditions: endpoint: median survival time, higher = longer survival. The gist of the method: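 Mice carrying the transplanted tumor received test compound or vehicle. Survival was recorded in each group, and the value is the treated-group measurement divided by that of the vehicle-treated control group.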

[1] abbreviates: dose: 50.0 mg/kg/injection, schedule: Q01DX005 (ip), vehicle: Klucel (hydroxypropylcellulose) (HPC).
The mark [2] stands for this setting: dose: 100.0 mg/kg/injection, schedule: Q01DX005 (ip), vehicle: Klucel (hydroxypropylcellulose) (HPC).
The mark [3] stands for this setting: dose: 200.0 mg/kg/injection, schedule: Q01DX005 (ip), vehicle: Klucel (hydroxypropylcellulose) (HPC).
Setting [4] is: dose: 60.0 mg/kg/injection, schedule: Q01DX005 (ip), vehicle: saline with Tween-80.
Setting [5] is: dose: 120.0 mg/kg/injection, schedule: Q01DX005 (ip), vehicle: saline with Tween-80.
[6] abbreviates: dose: 240.0 mg/kg/injection, schedule: Q01DX005 (ip), vehicle: saline with Tween-80.
[7] abbreviates: dose: 50.0 mg/kg/injection, schedule: Q01DX009 (ip), vehicle: saline.
Where [8] appears, read: dose: 100.0 mg/kg/injection, schedule: Q01DX009 (ip), vehicle: saline.
[9] abbreviates: dose: 200.0 mg/kg/injection, schedule: Q01DX009 (ip), vehicle: saline.
Setting [10] is: dose: 50.0 mg/kg/injection, schedule: Q01DX009 (ip), vehicle: saline with Tween-80.
Where [11] appears, read: dose: 100.0 mg/kg/injection, schedule: Q01DX009 (ip), vehicle: saline with Tween-80.
[12] abbreviates: dose: 200.0 mg/kg/injection, schedule: Q01DX009 (ip), vehicle: saline with Tween-80.
The mark [13] stands for this setting: dose: 50.0 mg/kg/injection, schedule: Q01DX005 (ip), vehicle: saline with Tween-80.
Where [14] appears, read: dose: 100.0 mg/kg/injection, schedule: Q01DX005 (ip), vehicle: saline with Tween-80.
The mark [15] stands for this setting: dose: 200.0 mg/kg/injection, schedule: Q01DX005 (ip), vehicle: saline with Tween-80.

SMILES strings stand for the structures. Several values for one entry are separate records, joined by “and”; a condition that tells them apart may be missing. Identical values can stand only once. Inconclusive results and toxic doses are left out.

Turning to `Cn1c(-c2ccccc2)c(COC(=O)NC2CCCCC2)c(COC(=O)NC2CCCCC2)c1-c1ccc(Cl)cc1`, the T/C was 109 % of control (dose: 3.13 mg/kg/injection, schedule: Q01DX009 (ip), vehicle: distilled water + Tween-80); 105 % of control (dose: 6.25 mg/kg/injection, schedule: Q01DX009 (ip), vehicle: distilled water + Tween-80); 178 % of control (dose: 50.0 mg/kg/injection, schedule: Q01DX009 (ip), vehicle: distilled water + Tween-80); 175 % of control (dose: 75.0 mg/kg/injection, schedule: Q01DX009 (ip), vehicle: distilled water + Tween-80).
For the compound `COc1cc2ccc3c[n+]4ccccc4cc3c2cc1OC`, the T/C (dose: 6.25 mg/kg/injection, schedule: Q01DX009 (ip), vehicle: Klucel (hydroxypropylcellulose) (HPC)) is 103 % of control and the T/C (dose: 12.5 mg/kg/injection, schedule: Q01DX009 (ip), vehicle: Klucel (hydroxypropylcellulose) (HPC)) is 108 % of control.
`CSc1ccc(N2C(=O)CCSC2=S)cc1Cl`: the T/C is 108 % of control (dose: 50.0 mg/kg/injection, schedule: Q01DX009 (ip), vehicle: suspension in saline); 110 % of control (dose: 100.0 mg/kg/injection, schedule: Q01DX009 (ip), vehicle: suspension in saline); 114 % of control (dose: 200.0 mg/kg/injection, schedule: Q01DX009 (ip), vehicle: suspension in saline).
On to `C=CC1(C)CCC2C(=CCC3C(C)(COC4OC(CO)C(O)C(O)C4O)C(O)CCC23C)C1` (configuration not stated), for which the T/C (dose: 3.0 mg/kg/injection, schedule: Q01DX009 (ip), vehicle: Klucel (hydroxypropylcellulose) (HPC)) is 100 % of control; the T/C (dose: 6.0 mg/kg/injection, schedule: Q01DX009 (ip), vehicle: Klucel (hydroxypropylcellulose) (HPC)) is 94 % of control; the T/C (dose: 12.0 mg/kg/injection, schedule: Q01DX009 (ip), vehicle: Klucel (hydroxypropylcellulose) (HPC)) is 103 % of control; the T/C (dose: 24.0 mg/kg/injection, schedule: Q01DX009 (ip), vehicle: Klucel (hydroxypropylcellulose) (HPC)) was 103 % of control; the T/C (dose: 48.0 mg/kg/injection, schedule: Q01DX009 (ip), vehicle: Klucel (hydroxypropylcellulose) (HPC)) is 106 % of control.
With `N#C/C(=C1/Nc2ccccc2NC1=O)c1ccccc1`, the T/C (dose: 50.0 mg/kg/injection, schedule: Q01DX009 (ip), vehicle: distilled water + Tween-80 + alcohol) is 96 % of control and the T/C (dose: 100.0 mg/kg/injection, schedule: Q01DX009 (ip), vehicle: distilled water + Tween-80 + alcohol) is 92 % of control.
With `CC(=O)Oc1cc2oc([O-])c[n+]2c2ccccc12`, the T/C (dose: 50.0 mg/kg/injection, schedule: Q01DX001 (ip), vehicle: saline with Tween-80) was 106 % of control; the T/C (dose: 60.0 mg/kg/injection, schedule: Q01DX005 (ip), vehicle: Klucel + Tween-80) is 124 % of control; the T/C (dose: 100.0 mg/kg/injection, schedule: Q01DX001 (ip), vehicle: saline with Tween-80) was 113 % of control and 124 % of control; the T/C (dose: 200.0 mg/kg/injection, schedule: Q01DX001 (ip), vehicle: saline with Tween-80) was 106 % of control and 121 % of control.
Regarding `O=c1c2ccccc2c(=O)n2n1C1CCC2C1`, the T/C reads like this: under setting [1], 96 % of control; under setting [2], 110 % of control; under setting [3], 100 % of control.
As for `CCOc1ccc(NC(=O)c2c(C)nc(-c3ccccc3)nc2Nc2ccc(Cl)cc2)cc1`, the T/C under setting [4] was 90 % of control, the T/C under setting [5] is 90 % of control and the T/C under setting [6] is 94 % of control.
As for `CCCCN=C(N)NN=C(c1ccc(C)cc1)c1ccc(C)cc1`, the T/C was 102 % of control (dose: 25.0 mg/kg/injection, schedule: Q04DX002 (ip), vehicle: saline with Tween-80) and 99 % of control (dose: 50.0 mg/kg/injection, schedule: Q04DX002 (ip), vehicle: saline with Tween-80).
As to `COc1ccc(/C=C2\CCCC3=C2N=C2SCC(=O)N2C3c2ccc(OC)cc2)cc1` (configuration not stated), the T/C was 98 % of control (dose: 25.0 mg/kg/injection, schedule: Q04DX003 (ip), vehicle: saline with Tween-80); 92 % of control (dose: 50.0 mg/kg/injection, schedule: Q04DX003 (ip), vehicle: saline with Tween-80); 90 % of control (dose: 100.0 mg/kg/injection, schedule: Q04DX003 (ip), vehicle: saline with Tween-80).
In the case of `COc1ccc(CC2c3cc(OC)c(OC)cc3CCN2C(C)=O)cc1OC` (configuration not stated), the T/C is 99 % of control (dose: 3.0 mg/kg/injection, schedule: Q01DX005 (ip), vehicle: saline with Tween-80); 102 % of control (dose: 6.0 mg/kg/injection, schedule: Q01DX005 (ip), vehicle: saline with Tween-80); 95 % of control (dose: 12.0 mg/kg/injection, schedule: Q01DX005 (ip), vehicle: saline with Tween-80).
For the compound `CC(/C=N\N=C(N)N)=N/N=C(N)N`, the T/C was 100 % of control (dose: 14.6 mg/kg/injection, schedule: Q01DX009 (ip), vehicle: saline) and 120 % of control (dose: 22.0 mg/kg/injection, schedule: Q01DX009 (ip), vehicle: saline).
For the compound `Clc1ccc2[nH]c3ccc(Cl)cc3c2c1`, the T/C is 104 % of control under setting [1], 113 % of control under setting [2] and 113 % of control under setting [3].
As to `O=C(Nc1cccc(Br)c1)Oc1cccc2cccnc12`, the T/C is 105 % of control under setting [4], 94 % of control under setting [5] and 90 % of control under setting [6].
On to `CSC1=NC=C(C#N)C2=NC(c3ccc(Cl)cc3)NN12` (configuration not stated), for which the T/C under setting [4] was 90 % of control, the T/C under setting [5] was 93 % of control and the T/C under setting [6] was 94 % of control.
Consider `CC1N=C(SCC(=O)c2ccc(F)cc2)N2C(C)N=C(SCC(=O)c3ccc(F)cc3)N12` (configuration not stated), for which the T/C under setting [7] is 111 % of control, the T/C under setting [8] is 111 % of control and the T/C under setting [9] was 98 % of control.
Take `O=C1Cc2csc3nc(=O)cc(n23)N1`: the T/C reads like this: (dose: 50.0 mg/kg/injection, schedule: Q01DX005 (ip), vehicle: saline) 94 % of control; (dose: 100.0 mg/kg/injection, schedule: Q01DX005 (ip), vehicle: saline) 97 % of control; (dose: 200.0 mg/kg/injection, schedule: Q01DX005 (ip), vehicle: saline) 88 % of control.
Regarding `Clc1c2c(c(Cl)c3c1=Nc1ncccc1O3)=Nc1ncccc1O2`, the T/C was 100 % of control under setting [10], 96 % of control under setting [11] and 99 % of control under setting [12].
Regarding `CCOC(=O)[C@]1(Br)CC[C@]1(Br)C(=O)OCC`, the T/C is 106 % of control and 121 % of control under setting [10]; 112 % of control and 114 % of control under setting [11]; 117 % of control and 122 % of control under setting [12]; 123 % of control (dose: 400.0 mg/kg/injection, schedule: Q01DX009 (ip), vehicle: saline with Tween-80).
As to `COc1ccc(/C=C/C(=O)C(C)(C)Br)cc1`, the T/C is, setting by setting: under setting [4], 101 % of control; under setting [5], 101 % of control; under setting [6], 103 % of control.
Consider `CC(=O)Nc1ccc(S(=O)(=O)NCCSS(=O)(=O)O)cc1`, for which the T/C runs as follows: under setting [13], 101 % of control; under setting [14], 109 % of control; under setting [15], 109 % of control.
`C#CCN(Cc1ccc2nc(N)[nH]c(=O)c2c1)c1ccc(C(=O)NC(CCC(=O)O)C(=O)O)cc1` (configuration not stated): the T/C is 103 % of control and 104 % of control and 97 % of control (dose: 12.5 mg/kg/injection, schedule: Q01DX005 (ip), vehicle: water); 103 % of control and 104 % of control (2×) (dose: 25.0 mg/kg/injection, schedule: Q01DX005 (ip), vehicle: water); 109 % of control and 120 % of control (2×) (dose: 50.0 mg/kg/injection, schedule: Q01DX005 (ip), vehicle: water); 117 % of control (dose: 100.0 mg/kg/injection, schedule: Q01DX005 (ip), vehicle: water); 97 % of control (dose: 150.0 mg/kg/injection, schedule: Q01DX005 (ip), vehicle: alkali diluted with water); 97 % of control (dose: 200.0 mg/kg/injection, schedule: Q01DX005 (ip), vehicle: water).
As to `OCCN(CCO)c1ncnc2nc[nH]c12`, the T/C is 88 % of control under setting [13], 96 % of control under setting [14] and 98 % of control under setting [15].
As for `O=[N+]([O-])c1cc(NC(=S)SC2CCCCC2)ccc1Cl`, the T/C is 107 % of control and 108 % of control (dose: 25.0 mg/kg/injection, schedule: Q01DX009 (ip), vehicle: saline); 100 % of control and 104 % of control and 93 % of control under setting [7]; 102 % of control and 110 % of control and 90 % of control under setting [8]; 100 % of control and 104 % of control and 122 % of control under setting [9].
